Reference: patent publication US20240425496A1, “AZETIDINYL PYRIMIDINES AND USES THEREOF” (Aerie Pharmaceuticals, Inc., priority 2021, published 2024)

Assays:
Format in all cases: biochemical
[1] = target: JAK2 (Homo sapiens (Human), UniProt O60674); assay: JAK kinase assay (KINASE-GLO luminescent), JAK2 enzyme; details: JAK2 enzyme 10 nM, Abl peptide substrate
Experimental: All compounds were initially prepared as 10 mM stocks in anhydrous dimethylsulfoxide (DMSO). A 20 μL aliquot of the 10 mM solutions was transferred to individual wells in column 1 of a 96-well polypropylene microtiter plate (Corning #3363) and diluted with DMSO to give a final compound concentration of 4 mM. Test compounds were then serially diluted 1:5 in DMSO for an 11-point concentration response and further diluted in the assay buffer bringing all compound concentrations to a final range of 100 μM to […] in 2.5% DMSO. The assay was performed in white 96-well, flat-bottom, half-area, non-binding assay plate (Corning #3642) in assay buffer consisting of 20 mM HEPES (pH 7.5), 10 mM MgCl2*6H2O, 100 μM sodium orthovanadate, 0.05% CHAPS and 0.1% bovine serum albumin. A 10 μL aliquot of compound from each well of the intermediate dilution plate and 20 μL of a 2× substrate/enzyme solution containing acceptor substrate (800 nM RSK2 peptide […] (SEQ ID NO: 1)), ROCK2 enzyme (10 nM), or ROCK1 enzyme, and 1,4-Dithiothreitol (DTT, 2 uM) were added to all wells. The reaction was initiated by the addition of 10 μL of 4× stock solution ATP (2 μM). Reactions were thoroughly mixed manually, covered, and allowed to incubate at room temperature for 75 min. Protein kinase activity was quantitated using Promega's KINASE-GLO™ luminescent Kinase Assay Kit according to the manufacturer's directions. ATP concentrations remaining in Test wells following the termination of the enzymatic reaction were compared against control wells containing equivalent amounts of DMSO containing no inhibitor (CTRL). […] Percent of Control (POC) values were determined for each concentration of compound tested according to the equation: […]
IC50 values were calculated using the following 4-parameter logistic curve-fitting algorithm:
Compounds were prepared in the exact same manner as described in the ROCK Kinase Assay with the exception to the substrate and enzyme. […]

[2] = target: TYK2 (Homo sapiens (Human), UniProt P29597); assay: JAK kinase assay (KINASE-GLO luminescent), TYK2 enzyme; details: TYK2 enzyme 10 nM, Abl peptide substrate
Chain of TYK2 (P29597 whole entry, species assumed): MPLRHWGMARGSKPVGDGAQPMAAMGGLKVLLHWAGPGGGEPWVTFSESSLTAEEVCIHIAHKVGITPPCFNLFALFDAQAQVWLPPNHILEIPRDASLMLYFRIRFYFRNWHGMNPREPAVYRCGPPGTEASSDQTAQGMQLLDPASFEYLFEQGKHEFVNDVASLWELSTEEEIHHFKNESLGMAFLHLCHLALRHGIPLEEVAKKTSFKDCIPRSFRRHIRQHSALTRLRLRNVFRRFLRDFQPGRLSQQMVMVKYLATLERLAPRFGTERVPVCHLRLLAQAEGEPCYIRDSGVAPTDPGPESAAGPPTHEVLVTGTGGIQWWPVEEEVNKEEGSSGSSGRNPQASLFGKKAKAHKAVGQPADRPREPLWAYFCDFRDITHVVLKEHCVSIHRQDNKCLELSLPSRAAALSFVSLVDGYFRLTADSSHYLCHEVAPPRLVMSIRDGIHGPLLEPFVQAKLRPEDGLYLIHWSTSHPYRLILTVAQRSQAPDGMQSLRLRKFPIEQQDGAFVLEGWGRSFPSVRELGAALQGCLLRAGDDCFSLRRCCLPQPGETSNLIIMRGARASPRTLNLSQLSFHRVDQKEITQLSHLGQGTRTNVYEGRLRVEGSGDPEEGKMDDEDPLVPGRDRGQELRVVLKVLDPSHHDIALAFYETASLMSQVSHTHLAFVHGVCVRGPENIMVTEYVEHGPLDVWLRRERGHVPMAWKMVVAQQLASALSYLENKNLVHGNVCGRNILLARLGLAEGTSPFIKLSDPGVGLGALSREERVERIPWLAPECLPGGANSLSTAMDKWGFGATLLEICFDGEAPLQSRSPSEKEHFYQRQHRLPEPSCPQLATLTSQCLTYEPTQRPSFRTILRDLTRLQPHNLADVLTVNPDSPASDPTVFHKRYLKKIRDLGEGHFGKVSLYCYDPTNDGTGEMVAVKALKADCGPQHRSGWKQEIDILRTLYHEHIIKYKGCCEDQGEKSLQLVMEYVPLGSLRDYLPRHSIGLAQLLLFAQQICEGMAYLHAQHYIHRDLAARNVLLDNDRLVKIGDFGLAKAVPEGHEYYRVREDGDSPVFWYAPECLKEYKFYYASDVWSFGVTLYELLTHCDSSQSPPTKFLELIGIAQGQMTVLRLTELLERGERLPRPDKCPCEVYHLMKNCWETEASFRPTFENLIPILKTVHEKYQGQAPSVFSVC
How it was run: (§1)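 Kinase-Glo luminescence measures ATP remaining after 75 min at room temperature; ATP 2 μM in 4× stock. 11-point 1:5 dilutions, 2.5% DMSO final. Percent of DMSO control per concentration, IC50 by 4-parameter logistic fit.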

[3] = target: JAK1 (Homo sapiens (Human), UniProt P23458); assay: JAK kinase assay (KINASE-GLO luminescent), JAK1 enzyme; details: JAK1 enzyme 10 nM, Abl peptide substrate
Chain of JAK1 (P23458 whole entry, species assumed): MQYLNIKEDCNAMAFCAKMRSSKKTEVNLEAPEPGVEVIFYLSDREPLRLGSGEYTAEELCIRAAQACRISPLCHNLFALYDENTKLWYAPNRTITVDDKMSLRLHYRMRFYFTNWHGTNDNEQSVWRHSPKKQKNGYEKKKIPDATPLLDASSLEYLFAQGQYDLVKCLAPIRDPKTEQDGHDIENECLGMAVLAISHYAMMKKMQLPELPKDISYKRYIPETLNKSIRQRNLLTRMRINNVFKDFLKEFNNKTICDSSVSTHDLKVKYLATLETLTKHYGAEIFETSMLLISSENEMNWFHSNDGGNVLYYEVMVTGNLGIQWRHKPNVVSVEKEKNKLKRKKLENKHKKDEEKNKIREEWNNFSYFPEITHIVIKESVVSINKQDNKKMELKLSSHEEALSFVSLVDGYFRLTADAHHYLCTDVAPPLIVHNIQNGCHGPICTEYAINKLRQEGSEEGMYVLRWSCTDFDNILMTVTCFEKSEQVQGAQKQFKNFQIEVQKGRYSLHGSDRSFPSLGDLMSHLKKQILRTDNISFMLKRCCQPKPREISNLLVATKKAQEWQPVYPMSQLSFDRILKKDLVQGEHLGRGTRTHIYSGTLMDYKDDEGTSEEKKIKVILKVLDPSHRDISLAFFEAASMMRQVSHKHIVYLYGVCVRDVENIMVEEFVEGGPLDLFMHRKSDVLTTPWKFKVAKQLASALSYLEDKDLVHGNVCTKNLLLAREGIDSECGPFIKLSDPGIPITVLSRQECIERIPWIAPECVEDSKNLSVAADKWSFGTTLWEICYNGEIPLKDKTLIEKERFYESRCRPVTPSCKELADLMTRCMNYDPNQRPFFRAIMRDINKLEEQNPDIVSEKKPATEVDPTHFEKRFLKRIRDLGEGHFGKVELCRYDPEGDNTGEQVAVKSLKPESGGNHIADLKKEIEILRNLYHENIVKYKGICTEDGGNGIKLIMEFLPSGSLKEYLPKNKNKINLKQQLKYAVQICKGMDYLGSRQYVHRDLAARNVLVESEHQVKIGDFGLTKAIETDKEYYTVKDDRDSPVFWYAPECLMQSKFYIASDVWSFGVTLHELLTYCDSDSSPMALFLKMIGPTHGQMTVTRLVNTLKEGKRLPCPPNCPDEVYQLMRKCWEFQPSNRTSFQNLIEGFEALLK
How it was run: as §1

Chain of JAK2 (O60674 whole entry, species assumed): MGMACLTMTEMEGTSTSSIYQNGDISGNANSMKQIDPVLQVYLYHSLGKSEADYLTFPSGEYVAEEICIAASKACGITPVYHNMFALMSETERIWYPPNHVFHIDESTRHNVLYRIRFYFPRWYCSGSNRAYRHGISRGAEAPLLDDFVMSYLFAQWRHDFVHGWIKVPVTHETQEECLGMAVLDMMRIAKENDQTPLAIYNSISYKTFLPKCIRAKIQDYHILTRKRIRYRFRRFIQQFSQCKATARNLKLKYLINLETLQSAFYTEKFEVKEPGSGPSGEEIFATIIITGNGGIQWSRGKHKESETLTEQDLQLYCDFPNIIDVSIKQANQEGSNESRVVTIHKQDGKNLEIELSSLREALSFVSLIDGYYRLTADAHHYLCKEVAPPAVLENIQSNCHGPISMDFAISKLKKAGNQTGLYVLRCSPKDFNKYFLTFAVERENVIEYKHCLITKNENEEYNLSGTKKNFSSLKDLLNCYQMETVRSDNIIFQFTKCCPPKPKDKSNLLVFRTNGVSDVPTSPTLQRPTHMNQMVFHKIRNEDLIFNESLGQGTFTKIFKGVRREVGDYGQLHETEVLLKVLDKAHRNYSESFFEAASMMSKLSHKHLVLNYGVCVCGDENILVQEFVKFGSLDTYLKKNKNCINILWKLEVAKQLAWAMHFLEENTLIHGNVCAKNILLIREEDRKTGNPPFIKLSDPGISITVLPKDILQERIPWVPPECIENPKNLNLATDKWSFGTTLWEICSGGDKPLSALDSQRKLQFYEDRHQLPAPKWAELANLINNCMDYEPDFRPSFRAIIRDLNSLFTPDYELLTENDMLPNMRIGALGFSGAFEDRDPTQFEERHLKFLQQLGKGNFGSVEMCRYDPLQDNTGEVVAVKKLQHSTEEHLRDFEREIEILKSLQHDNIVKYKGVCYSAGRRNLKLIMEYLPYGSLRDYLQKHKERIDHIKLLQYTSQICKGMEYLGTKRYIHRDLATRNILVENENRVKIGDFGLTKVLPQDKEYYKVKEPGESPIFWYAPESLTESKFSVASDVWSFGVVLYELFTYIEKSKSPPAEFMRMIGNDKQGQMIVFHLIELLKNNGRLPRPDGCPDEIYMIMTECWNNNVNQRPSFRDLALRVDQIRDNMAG

Row | SMILES | IC50 [1] | IC50 [2] | IC50 [3]
1 | Cc1cc(Nc2ncc(C)c(N3CC(CC#N)(N4CCN(C)[C@H](C)C4)C3)n2)sn1 [E52C] | < 20 nM | < 10 nM | 
2 | Cc1cnc(Nc2ccc3c(c2)CN(C)C3)nc1N1CC(CC#N)(N2CCC(CCF)CC2)C1 [E112] | < 50 nM |  | < 50 nM
3 | Cc1cc(Nc2ncc(C)c(N3CC(C#N)C3)n2)sn1 [E7] | < 50 nM |  | 
4 | Cc1cc(Nc2ncc(C)c(N3CC(CC#N)(N4CCN5CC(C)(C)C[C@H]5C4)C3)n2)sn1 [E111a] |  | < 10 nM | < 10 nM
5 | Cc1cc(Nc2ncc(C)c(N3CC(CC#N)(N4CCN5C[C@@H](F)C[C@@H]5C4)C3)n2)sn1 [E70a] |  | < 10 nM | < 20 nM
6 | CO[C@@H]1C[C@H]2CN(C3(CC#N)CN(c4nc(Nc5cc(C)ns5)ncc4C)C3)CCN2C1 [E72a] |  | < 10 nM | < 10 nM
7 | Cc1cc(Nc2ncc(C)c(N3CC(CC#N)(N4C5CCCC4C5)C3)n2)sn1 [E49] |  | < 20 nM | < 30 nM
8 | Cc1cc(Nc2ncc(C)c(N3CC(C)(CNC(=O)C4CCNCC4(F)F)C3)n2)sn1 (stereo not shown) [E285] |  | < 150 nM | < 100 nM
9 | Cc1cc(Nc2ncc(C)c(N3CC(CC#N)(N4CCN(CC(C)(C)F)CC4)C3)n2)sn1 [E52D] |  | < 20 nM | < 10 nM
10 | COCCN1CCN(C2(CC#N)CN(c3nc(Nc4cnn(CCOC)c4)ncc3C)C2)CC1 [E175-E] |  | < 200 nM | < 200 nM
11 | Cc1cnc(Nc2ccc(N3CCOCC3)c(F)c2)nc1N1CC(CCC#N)C1 [E216-K] |  | < 10 nM | < 50 nM
12 | Cc1cc(Nc2ncc(C)c(N3CC(C4CC4)C3)n2)sn1 [E108a] |  | < 10 nM | < 50 nM
13 | Cc1cc(Nc2ncc(C)c(N3CC(CC#N)(NC(C)c4cccc(F)c4)C3)n2)sn1 (stereo not shown) [E352] |  | < 50 nM | < 100 nM
14 | Cc1cc(Nc2ncc(C)c(N3CC(CC#N)(N4CCn5cccc5C4)C3)n2)sn1 [E90a] |  | < 10 nM | < 10 nM
15 | Cc1cnc(Nc2cnn(C)c2)nc1N1CC(N2CCN3C[C@H](F)C[C@H]3C2)C1 [E169a] |  | < 120 nM | < 250 nM
16 | C#CC1(O)CN(c2nc(Nc3cc(C)ns3)ncc2C)C1 [E117-N] |  | < 5 nM | < 10 nM
